Like-named read-outs stand apart in the source and are kept apart here.
Assays:
Type in all cases: in vivo
[1] = Toxicity on mice (LD50 i.g., largest dose i.v. at which all animals survive); details: for LD50: mouse, in vivo, po; for LD50 i.g.: mice, footnote: not determinable because of insufficient resorption, no dosage-dependent death of the animals
Method: I. toxicity was determined on mice in the usual manner; the test and comparison substances being administered in aqueous solution by means of a stomach probe.

[2] = tested on: average blood pressure; experiment: Sympathomimetic action: increase of the average blood pressure by 25% over the initial value (narcotised dogs); details: for ED (25% increase): Canis lupus familiaris, read-out: dose for increase of the average blood pressure by 25% over the initial value
Method: Ii. sympathomimetic action was determined by measurement of the arterial and venous blood pressure using Statham transducers. The measured values were recorded by means of a direct recording instrument. As experimental animals, adult dogs of both sexes, were used; these had been narcotised with pentobarbital. During the experiment, the animals were kept at their specific body temperature by means of rectum-controlledinfra-red lamps. The compounds tested were injected, in the form of an isotonic solution, into the side branch of the vena femoralis. In the case of intraduodenal administration, the animals were laparotomised, and a cannula was fixed into the small intestine so that the substance, in the form of an aqueous solution, could be introduced directly into the intestine. Furthermore, the pylorus was ligatured in order to prevent regurgitation of the substance into the stomach. In the case of intragastric administration, the substances were administered in the form of an aqueous solution by means of a stomach probe.

[3] = tested on: average blood pressure; experiment: Sympathomimetic action: increase of the average blood pressure in % of initial value (awake dogs); details: for increase of the average blood pressure: i.g. up to 20 mg/kg
Method: Ii. sympathomimetic action was determined by measurement of the arterial and venous blood pressure using Statham transducers. The measured values were recorded by means of a direct recording instrument. In the case of intragastric administration, the substances were administered in the form of an aqueous solution by means of a stomach probe. Quiet and compatible dogs were trained to lie, without sedation, for a few hours on an operating board. Under local anesthesia, a catheter was introduced into the arteria femoralis. A measurement of arterial blood pressure was then carried out using the catheter and a Statham transducer.

[4] = Toxicity on mice (LD50 i.g., largest dose i.v. at which all animals survive)

SMILES	LD50 [1]	ED (25% increase) ([2]; po, i.g.)	duration of increase of the average blood pressure by 25% over the initial value ([2]; i.g. 4.0-16.0 mg/kg)	duration of increase of the average blood pressure ([3]; i.g. 16 mg/kg)	increase of the average blood pressure in % of initial value ([3]; i.g. 16 mg/kg)	increase of the average blood pressure in % of initial value ([3]; i.v. 1 mg/kg)	largest dose i.v. at which all animals survive [4]	LD50 i.g. [1]	ED (25% increase) ([2]; intraduodenal, i.d.)	increase of the average blood pressure [3]	increase of the average blood pressure in % of initial value ([3]; i.v. 0.05 mg/kg)	duration of increase of the average blood pressure by 25% over the initial value ([2]; i.g. 2.0 mg/kg)	duration of increase of the average blood pressure ([3]; i.g. 2 mg/kg)	increase of the average blood pressure in % of initial value ([3]; i.g. 2 mg/kg)	duration of increase of the average blood pressure by 25% over the initial value ([2]; i.d. 2.0 mg/kg)	duration of increase of the average blood pressure ([3]; i.g. 4 mg/kg)	increase of the average blood pressure in % of initial value ([3]; i.g. 4 mg/kg)
CC1=CC2(CC(C)(C)C1)NCC(c1cccc(O)c1)O2 (stereo not shown) [C, 7,9,9-trimethyl-2-(3'-hydroxyphenyl)-1-oxa-4-azaspiro-[4,5]dec-6-ene]	~1200 mg/kg	4 to 16 mg/kg	60 '	34 '	50%	30-60%	20.7 mg/kg										
NCC(O)c1cccc(O)c1 (stereo not shown) [D, 1-(3'-hyroxyphenyl)-2-aminoethanol, reference compound]							3.3 mg/kg	not determinable	> 20 mg/kg	without effect	50-70%						
CCNCC(O)c1cccc(O)c1 (stereo not shown) [E, 1-(3'-hydroxyphenyl)-2-ethylaminoethanol, reference compound]							7.25 mg/kg	not determinable	> 20 mg/kg	without effect	25%						
Oc1cccc(C2CNC3(CCCCCC3)O2)c1 (stereo not shown) [B, 2-(3'-hydroxyphenyl)-1-oxa-4-azaspiro[4,6]undecane]	~400 mg/kg	2 mg/kg					3.3 mg/kg				40-70%	> 60 '	70 '	35%			
Oc1cccc(C2CNC3(CCCCC3)O2)c1 (stereo not shown) [A, 2-(3'-hydroxyphenyl)-1-oxa-4-azaspiro[4,5]decane]	> 400 mg/kg						3.3 mg/kg		2 mg/kg		50-80%				> 50 '	> 60 '	40%
